Where two headings read alike, the source gives them in different places. Starred links: 1 amine or outer side, 2 acyl side, 3 side chain; linkers in the order of their positions; H or OH if unused. Positions of bridges follow the written chain, without caps; N, C: chain ends. Non-standard residues stand in square brackets, D forms with d. Residues, ends and D or L forms follow the SMILES beside them. Groups on a side chain read outwards from the residue. *: point of attachment. Ala(1-CH2CO2H-4-piperidyl) = N[C@@H](CC1CCN(CC(=O)O)CC1)C(=O)O; Ala(piperidin-4-yl) = O=C([C@H](CC1CCN([*:3])CC1)N[*:1])[*:2]; DOTA = O=C(O)CN1CCN(CC(=O)O)CCN(CC(=O)*)CCN(CC(=O)O)CC1; Trp(5-F) = N[C@@H](Cc1c[nH]c2ccc(F)cc12)C(=O)O; Trp(7-aza) = N[C@@H](Cc1c[nH]c2ncccc12)C(=O)O; γGlu = O=C(O)[C@H](CCC(=O)[*:2])N[*:1]; 1Nal = N[C@@H](Cc1cccc2ccccc12)C(=O)O; Ala(4-THP) = N[C@@H](CC1CCOCC1)C(=O)O; Val(3-OH) = CC(C)(O)[C@H](N)C(=O)O; hCha = N[C@@H](CCC1CCCCC1)C(=O)O; PEG4 = NCCOCCOCCOCCOCCC(=O)O; Tle = CC(C)(C)[C@H](N)C(=O)O; hLeu = CC(C)CC[C@H](N)C(=O)O; Ms = CS(=O)(=O)*
Tests used:
Calu-6 cell line [1] = assay: Net internalization of [177Lu]Lu-labeled peptide in Calu-6 cells; assay type: cell-based, Human; conditions: 1 hour, 37° C., glycine pH 2.5 acid wash
Experimental: (§1) [^177Lu]LuCl3 was received from venders in HCl solution. For every mCi of [^177Lu]LuCl3 added to the reaction vial (1.5 mL Eppendorf vial), ammonium acetate buffer (0.2 M, pH 4.9, 100 μL, containing 1% w/v ascorbic acid and 6% v/v ethanol) and peptide conjugate (1 nmol) was added. The pH of the solution was determined to be approximately 5 by using pH strips. The reaction vial was incubated at 80° C., 700 RPM for 17-20 minutes. A sample from the reaction was analyzed by RP-HPLC using an Agilent Infinity II 1260 HPLC to determine reaction completion and radiochemical purity. HPLC conditions: Waters XBridge BEH C18 Column, 130 Å, 3.5 μm, 4.6 mm×250 mm; mobile phase: Solvent A=water (with 0.1% formic acid), solvent B=acetonitrile (with 0.1% formic acid). Gradients: 25-45% B in 10 minutes, 45-65% B in 12 minutes, 65-90% in 6 minutes at a flow rate of 0.5 mL/minute. Required amounts of the product were formulated in 1% PBSA for cell studies.
(§2) The study was conducted using Calu-6 cell line (Table 8)
(§3) Adherent cell studies: The cells were cultured in appropriate culture media (20 mL) in tissue culture treated T150 flasks at 37° C. and 5% CO2. Adherent cells were detached (60-70% confluent) using 5 mL Versene at 37° C. for 3 minutes. After confirming the viability using countess and count of detached cells using Trypan blue, the cells were centrifuged at 4° C. for 5 minutes (1,000 revolutions per minute). The cell pellet obtained was washed once with PBS and resuspended in 1% PBSA to obtain the desired cell concentration (5 million cells/mL).
Net internalization: The resuspended cells in 300 μl of 1% PBSA and counted in the gamma counter as “bound fraction” were collected in 1.5 mL Eppendorf tube and pelleted. The pelleted cells were incubated with 300 μl of 50 mM Glycine pH=2.5 for 3 minutes and then pelleted discarding the supernatant. This process was repeated one more time. The pelleted cells were washed with 300 μl of cold 1% PBSA and then resuspended in 300 μl 0.3 M NaOH. This was counted in the gamma counter as “internalized fraction”.
(§4) Calu-6 Cells are Human-Derived, Non-Engineered Lung Cancer Cell that Express B7-H3.

Calu-6 cell line [2] = assay: Cell associated (bound) fraction of [177Lu]Lu-labeled peptide in Calu-6 cells; assay type: cell-based, Human; conditions: 1 hour, 37° C.
Experimental: as §1, §2, §3
Cell associated fraction: Cells were incubated with 300 μL (0.8 μCi) of the incubation buffer (containing radiolabeled peptide [^177Lu]Lu-test peptide) for 1 hour at 37 C (Table 9). Post incubation, the cells were pelleted and washed 2 times using cold PBS+1% BSA. The supernatant and washes were combined and counted together as “unbound fraction” in a gamma counter. The cells were then resuspended in 300 μL of 1% PBS+1% BSA and counted in the gamma counter as cell associated fraction (or bound fraction).
as §4

human 4lg B7-H3 = molecular target: T1, human 4lg B7-H3 (Homo sapiens, UniProt Q5ZPR3); assay: Affinity determination by surface plasmon resonance (SPR) to 4Ig B7-H3; conditions: 4Ig B7-H3
T1 sequence (Q5ZPR3 29-534): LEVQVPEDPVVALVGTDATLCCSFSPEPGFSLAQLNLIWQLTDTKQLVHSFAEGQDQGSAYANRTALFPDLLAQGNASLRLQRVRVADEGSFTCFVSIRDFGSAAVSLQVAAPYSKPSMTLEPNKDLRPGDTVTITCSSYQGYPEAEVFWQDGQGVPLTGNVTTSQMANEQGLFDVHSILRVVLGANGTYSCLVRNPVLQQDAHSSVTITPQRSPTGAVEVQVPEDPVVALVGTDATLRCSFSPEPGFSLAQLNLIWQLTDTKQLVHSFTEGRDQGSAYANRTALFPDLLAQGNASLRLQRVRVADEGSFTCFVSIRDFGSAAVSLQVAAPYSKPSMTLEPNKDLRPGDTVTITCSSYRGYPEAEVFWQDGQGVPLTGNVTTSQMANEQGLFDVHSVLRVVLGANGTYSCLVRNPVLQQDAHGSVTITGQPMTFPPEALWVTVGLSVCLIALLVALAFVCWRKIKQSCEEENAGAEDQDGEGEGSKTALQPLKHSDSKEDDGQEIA

[3] = SPR KD—25° C., 25° C. flow cell temperature
[4] = read-out: SPR KD—37° C., 37° C. flow cell temperature
[5] = SPR KD—37° C., 37° C. flow cell temperature

| Compound | % net internalization (Calu-6 cell line [1]) | % cell associated fraction (Calu-6 cell line [2]) | Kd (human 4lg B7-H3; [3]) | Kd (human 4lg B7-H3; [4]) | Kd (human 4lg B7-H3; [5]) |
| --- | --- | --- | --- | --- | --- |
| CC(=O)N[C@@H](CCC(C)C)C(=O)N[C@@H](Cc1ccc(O)cc1)C(=O)N[C@H]1CSSC[C@@H](C(=O)N[C@@H](Cc2cccc3ccccc23)C(=O)N[C@@H](Cc2ccccc2)C(=O)N[C@H](C(=O)N[C@H](CCCCNC(=O)CN2CCN(CC(=O)O)CCN(CC(=O)O)CCN(CC(=O)O)CC2)C(N)=O)[C@@H](C)O)NC(=O)[C@H](Cc2ccc(O)cc2)NC(=O)[C@H](C(C)C)NC(=O)[C@H](CC(=O)O)NC(=O)[C@H](Cc2ccc(O)cc2)NC(=O)[C@H](CCCCN)NC(=O)CNC(=O)[C@H](C(C)C)NC1=O [compound 158, Ac-hLeu-Y-C-V-G-K-Y-D-V-Y-C-1Nal-F-Thr-dLys(DOTA)-CONH2] (Ac-[hLeu]YCVGKYDVYC[1Nal]FT[dK](DOTA)-NH2; disulfide 3-11) | B (25<%≤50) | C (%>50) | < 1 nM |  |  |
| CC(C)CC[C@H](NS(C)(=O)=O)C(=O)N[C@@H](Cc1ccc(O)cc1)C(=O)N[C@H]1CSSC[C@@H](C(=O)N[C@@H](Cc2c[nH]c3ccc(F)cc23)C(=O)N[C@@H](Cc2ccccc2)C(=O)N[C@H](C(=O)N[C@H](CCCCNC(=O)CN2CCN(CC(=O)O)CCN(CC(=O)O)CCN(CC(=O)O)CC2)C(=O)O)C(C)(C)O)NC(=O)[C@H](Cc2ccc(O)cc2)NC(=O)[C@H](C(C)C)NC(=O)[C@H](CC(=O)O)NC(=O)[C@H](CC2CCOCC2)NC(=O)[C@H](CC2CCNCC2)NC(=O)CNC(=O)[C@H](C(C)(C)C)NC1=O [Cpd #437, MeSO2-hLeu-Y-C-Tbg-G-PipAla-ThpA-D-V-Y-C-5FW-F-hydroxyVal-dLys(DOTA)-COOH] (Ms-[hLeu]YC[Tle]G[Ala(piperidin-4-yl)][Ala(4-THP)]DVYC[Trp(5-F)]F[Val(3-OH)][dK](DOTA)-OH; disulfide 3-11) | A (%≤25) | B (25<%≤50) |  | < 1 nM |  |
| CC(=O)N[C@@H](CCC(C)C)C(=O)N[C@@H](Cc1ccc(O)cc1)C(=O)N[C@H]1CSSC[C@@H](C(=O)N[C@@H](Cc2c[nH]c3ccc(F)cc23)C(=O)N[C@@H](Cc2ccccc2)C(=O)N[C@H](C(=O)N[C@H](CCC(=O)O)C(N)=O)C(C)(C)O)NC(=O)[C@H](Cc2ccc(O)cc2)NC(=O)[C@H](C(C)C)NC(=O)[C@H](CC(=O)O)NC(=O)[C@H](CC2CCN(C(=O)CCOCCOCCOCCOCCNC(=O)CN3CCN(CC(=O)O)CCN(CC(=O)O)CCN(CC(=O)O)CC3)CC2)NC(=O)[C@H](CC2CCNCC2)NC(=O)CNC(=O)[C@H](C(C)(C)C)NC1=O [compound 444, Ac-hLeu-Y-C-Tbg-G-PipAla-Pip(PEG4-DOTA)Ala-D-V-Y-C-5FW-F-hydroxyVal-dGlu-CONH2] (Ac-[hLeu]YC[Tle]G[Ala(piperidin-4-yl)][Ala(piperidin-4-yl)]([PEG4-DOTA])DVYC[Trp(5-F)]F[Val(3-OH)][dE]-NH2; disulfide 3-11) | A (%≤25) | B (25<%≤50) |  | < 1 nM |  |
| Ac-hLeu-Y-C-Tbg-G-Pip(PEG4-DOTA)Ala-ThpA-D-V-Y-C-5FW-[(2S, 3S)beta-Me-Phe]-hydroxyVal-dAla-COOH [compound 494] | B (25<%≤50) | C (%>50) |  |  |  |
| CC(=O)N[C@@H](CCC(C)C)C(=O)N[C@@H](Cc1ccc(O)cc1)C(=O)N[C@H]1CSSC[C@@H](C(=O)N[C@@H](Cc2c[nH]c3ccc(F)cc23)C(=O)N[C@@H](Cc2ccccc2)C(=O)N[C@H](C(=O)O)C(C)(C)O)NC(=O)[C@H](Cc2ccc(O)cc2)NC(=O)[C@H](C(C)C)NC(=O)[C@H](CC(=O)O)NC(=O)[C@H](CC2CCN(CC(=O)O)CC2)NC(=O)[C@H](CCCCNC(=O)CN2CCN(CC(=O)O)CCN(CC(=O)O)CCN(CC(=O)O)CC2)NC(=O)CNC(=O)[C@H](C(C)(C)C)NC1=O [compound 343, Ac-hLeu-Y-C-Tbg-G-Lys(DOTA)-Pip(CH2COOH)Ala-D-V-Y-C-5FW-F-hydroxyVal-COOH] (Ac-[hLeu]YC[Tle]GK(DOTA)[Ala(1-CH2CO2H-4-piperidyl)]DVYC[Trp(5-F)]F[Val(3-OH)]-OH; disulfide 3-11) |  |  |  |  | 10 to 100 nM |
| CC(=O)N[C@@H](CCC(C)C)C(=O)N[C@@H](Cc1ccc(O)cc1)C(=O)N[C@H]1CSSC[C@@H](C(=O)N[C@@H](Cc2c[nH]c3ccc(F)cc23)C(=O)N[C@@H](Cc2ccccc2)C(=O)N[C@H](C(=O)N[C@H](CCC(=O)O)C(N)=O)C(C)(C)O)NC(=O)[C@H](Cc2ccc(O)cc2)NC(=O)[C@H](C(C)C)NC(=O)[C@H](CC(=O)O)NC(=O)[C@H](CC2CCN(C(=O)CC[C@H](NC(=O)CN3CCN(CC(=O)O)CCN(CC(=O)O)CCN(CC(=O)O)CC3)C(=O)O)CC2)NC(=O)[C@H](CC2CCNCC2)NC(=O)CNC(=O)[C@H](C(C)(C)C)NC1=O [compound 459, Ac-hLeu-Y-C-Tbg-G-PipAla-Pip(gE-DOTA)Ala-D-V-Y-C-5FW-F-hydroxyVal-dGlu-CONH2] (Ac-[hLeu]YC[Tle]G[Ala(piperidin-4-yl)][Ala(piperidin-4-yl)]([γGlu-DOTA])DVYC[Trp(5-F)]F[Val(3-OH)][dE]-NH2; disulfide 3-11) |  |  |  |  | < 1 nM |
| CC(C)CC[C@H](NC(=O)CC[C@H](NC(=O)CN1CCN(CC(=O)O)CCN(CC(=O)O)CCN(CC(=O)O)CC1)C(=O)O)C(=O)N[C@@H](Cc1c[nH]c2ncccc12)C(=O)N[C@H]1CSSC[C@@H](C(=O)N[C@@H](Cc2cccc3ccccc23)C(=O)N[C@@H](Cc2ccccc2)C(=O)N2CCC[C@H]2C(N)=O)NC(=O)[C@H](Cc2ccc(O)cc2)NC(=O)[C@H](C(C)C)NC(=O)[C@H](CC(=O)O)NC(=O)[C@H](CC2CCOCC2)NC(=O)[C@H](CC2CCNCC2)NC(=O)CNC(=O)[C@H](C(C)(C)C)NC1=O [compound 284, DOTA-gE-hLeu-7AzaW-C-Tbg-G-PipAla-ThpA-D-V-Y-C-1Nal-F-Pro-CONH2] ({DOTA-γGlu}-[hLeu][Trp(7-aza)]C[Tle]G[Ala(piperidin-4-yl)][Ala(4-THP)]DVYC[1Nal]FP-NH2; disulfide 3-11) |  |  | 10 to 100 nM |  |  |
| CC(=O)N[C@@H](CCC1CCCCC1)C(=O)N[C@@H](Cc1ccc(O)cc1)C(=O)N[C@H]1CSSC[C@@H](C(=O)N[C@@H](Cc2c[nH]c3ccc(F)cc23)C(=O)N[C@@H](Cc2ccccc2)C(=O)N[C@H](C(=O)N[C@H](C)C(=O)O)C(C)(C)O)NC(=O)[C@H](Cc2ccc(O)cc2)NC(=O)[C@H](C(C)C)NC(=O)[C@H](CC(=O)O)NC(=O)[C@H](CC2CCOCC2)NC(=O)[C@H](CC2CCN(C(=O)CC[C@H](NC(=O)CN3CCN(CC(=O)O)CCN(CC(=O)O)CCN(CC(=O)O)CC3)C(=O)O)CC2)NC(=O)CNC(=O)[C@H](C(C)(C)C)NC1=O [compound 486, Ac-hCha-Y-C-Tbg-G-Pip(gE-DOTA)Ala-ThpA-D-V-Y-C-5FW-F-hydroxyVal-dAla-COOH] (Ac-[hCha]YC[Tle]G[Ala(piperidin-4-yl)]([γGlu-DOTA])[Ala(4-THP)]DVYC[Trp(5-F)]F[Val(3-OH)][dA]-OH; disulfide 3-11) |  |  |  |  | < 1 nM |

— US20250296959A1, “B7-H3 TARGETING PEPTIDES AND CONSTRUCTS THEREOF” (Mariana Oncology Inc., priority 2024, published 2025)
